Measurements published in patent US20200079766A1, “MONOCYCLIC OGA INHIBITOR COMPOUNDS” (Janssen Pharmaceutica NV, priority 2016, published 2020).
Like-named read-outs stand apart in the source and are kept apart here.

Columns and labels:
[1] = molecular target: T1, recombinant human Meningioma Expressed Antigen 5 (MGEA5), also referred to as O-GlcNAcase (OGA) (Homo sapiens, UniProt O60502); experiment: OGA biochemical assay: inhibition of FM-GlcNAc hydrolysis, fluorescence; protocol A (10 nM OGA, 1 h) or protocol B (2 nM OGA, 6 h); conditions: for IC50: read-out: Enzymatic hOGA, pIC50 (converted)
T1 construct: Full length OGA enzyme was purchased at OriGene (cat # TP322411); purchased OriGene TP322411
T1 sequence (O60502 1-916): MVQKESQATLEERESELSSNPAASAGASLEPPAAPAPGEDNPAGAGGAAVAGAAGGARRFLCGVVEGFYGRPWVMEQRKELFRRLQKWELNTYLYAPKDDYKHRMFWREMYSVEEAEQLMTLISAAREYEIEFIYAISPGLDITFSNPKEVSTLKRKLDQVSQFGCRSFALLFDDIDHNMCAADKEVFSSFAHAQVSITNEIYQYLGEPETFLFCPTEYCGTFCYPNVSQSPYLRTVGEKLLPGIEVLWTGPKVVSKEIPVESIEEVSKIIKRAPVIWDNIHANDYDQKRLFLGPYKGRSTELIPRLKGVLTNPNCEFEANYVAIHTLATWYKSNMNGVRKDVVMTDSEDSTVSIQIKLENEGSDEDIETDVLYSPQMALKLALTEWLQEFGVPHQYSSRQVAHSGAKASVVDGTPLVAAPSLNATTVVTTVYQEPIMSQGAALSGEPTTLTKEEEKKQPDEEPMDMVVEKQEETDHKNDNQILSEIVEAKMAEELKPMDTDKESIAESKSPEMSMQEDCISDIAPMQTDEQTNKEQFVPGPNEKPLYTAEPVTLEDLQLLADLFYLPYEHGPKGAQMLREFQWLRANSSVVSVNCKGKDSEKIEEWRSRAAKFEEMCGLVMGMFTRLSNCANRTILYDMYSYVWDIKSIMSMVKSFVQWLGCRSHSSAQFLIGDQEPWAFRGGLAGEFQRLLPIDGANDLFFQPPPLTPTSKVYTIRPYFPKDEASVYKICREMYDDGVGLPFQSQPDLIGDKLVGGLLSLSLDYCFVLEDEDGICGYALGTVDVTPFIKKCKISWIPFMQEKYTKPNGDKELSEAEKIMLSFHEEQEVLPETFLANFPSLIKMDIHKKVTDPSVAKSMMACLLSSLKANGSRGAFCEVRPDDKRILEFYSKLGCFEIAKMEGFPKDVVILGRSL
Method in brief: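 Full-length human OGA in 200 mM citrate/phosphate pH 7.2 with 0.005% Tween-20, compound pre-incubated 60 min at RT, then 100 uM FM-GlcNAc (final); 10 nM enzyme for 1 h or 2 nM for 6 h at RT. Stopped with pH 11.0 carbonate; fluorescein read at ex 485/em 538 nm. IC50 and Hill coefficient from curve fit.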

[2] = system: OGA in HEK293 cells inducible for P301L mutant human Tau (isoform 2N4R); experiment: OGA cellular assay: immunocytochemical detection of O-GlcNAcylated proteins (CTD110.6 antibody) after 6 h incubation; format: cell-based; conditions: for Emax / EC50: Homo sapiens, HEK293, 6 h; for Emax / Cellular Emax (%): maximum = Thiamet G 200 uM; for EC50: read-out: Cellular hOGA, pEC50 (converted)
Description: HEK293 cells inducible for P301L mutant human Tau (isoform 2N4R) were established at Janssen. Thiamet-G was used for both plate validation (high control) and as reference compound (reference EC50 assay validation). OGA inhibition is evaluated through the immunocytochemical (ICC) detection of O-GlcNAcylated proteins by the use of a monoclonal antibody (CTD110.6; Cell Signaling, #9875) detecting O-GlcNAcylated residues as previoulsy described (Dorfmueller et al. 2010 Chemistry & biology, 17:1250). Inhibition of OGA will result in an increase of O-GlcNAcylated protein levels resulting in an increased signal in the experiment. Cell nuclei are stained with Hoechst to give a cell culture quality control and a rough estimate of immediate compounds toxicity, if any. ICC pictures are imaged with a Perkin Elmer Opera Phenix plate microscope and quantified with the provided software Perkin Elmer Harmony 4.1.
Cells were propagated in DMEM high Glucose (Sigma, # D5796) following standard procedures. 2 days before the cell assay cells are split, counted and seeded in Poly-D-Lysine (PDL) coated 96-wells (Greiner, #655946) plate at a cell density of 12,000 cells per cm^2 (4,000 cells per well) in 100 μl of Assay Medium (Low Glucose medium is used to reduce basal levels of GlcNAcylation) (Park et al. 2014 The Journal of biological chemistry 289:13519). At the day of compound test medium from assay plates was removed and replenished with 90 μl of fresh Assay Medium. 10 μl of compounds at a 10 fold final concentration were added to the wells. Plates were centrifuged shortly before incubation in the cell incubator for 6 hours. DMSO concentration was set to 0.2%. Medium is discarded by applying vacuum. For staining of cells medium was removed and cells washed once with 100 μl D-PBS (Sigma, # D8537). From next step onwards unless other stated assay volume was always 50 μl and incubation was performed without agitation and at room temperature. Cells were fixed in 50 μl of a 4% paraformaldehyde (PFA, Alpha aesar, #043368) PBS solution for 15 minutes at room temperature. […] Before analysis samples were washed 2 times manually for 5 minutes in ICC base buffer.
Imaging is performed using Perkin Elmer Phenix Opera using a water 20× objective and recording 9 fields per well. Intensity readout at 488 nm is used as a measure of O-GlcNAcylation level of total proteins in wells. To assess potential toxicity of compounds nuclei were counted using the Hoechst staining. IC50-values are calculated using parametric non-linear regression model fitting. As a maximum inhibition Thiamet G at a 200 uM concentration is present on each plate. In addition, a concentration response of Thiamet G is calculated on each plate.

[3] = Enzymatic protocol B (2 nM OGA, 6 h)
[4] = Enzymatic protocol A (10 nM OGA, 1 h)

SMILES | Emax [1, 3] | IC50 [1, 3] | Emax [2] | EC50 [2] | Cellular hOGA; pEC50 [2] | Cellular Emax (%) [2] | Enzymatic Emax (%) [1, 3] | Emax [1, 4] | IC50 [1, 4]
CC(=O)Nc1ncc(CN2CCCC(c3cc(C)nc(C)c3)C2)s1 (single isomer, unassigned) [compound 130] | 103% | 9.12 nM | 99% | 13.2 nM | – | – | – | – | –
CC(=O)Nc1ncc(C(C)N2CCCC(COc3cc(C)nc(C)c3)C2)s1 (single isomer, unassigned) [compound 134] | 100% | 28.2 nM | 79.5% | 52.5 nM | – | – | – | – | –
CC(=O)Nc1ncc([C@@H](C)N2CCC[C@@H](COc3cc(C)nc(C)c3)C2)s1 (single isomer, unassigned) [compound 135] | 104% | 178 nM | – | – | 6.3 | 67.9% | – | – | –
CC(=O)Nc1ncc([C@@H](C)N2CCC[C@H](COc3cc(C)nc(C)c3)C2)s1 (single isomer, unassigned) [compound 136] | 100% | 95.5 nM | 70.6% | 479 nM | – | – | – | – | –
CC(=O)Nc1ncc([C@@H](C)N2CCC[C@@H](COc3cc(C)nc(C)c3)C2)s1 (single isomer, unassigned) [compound 137] | – | 0.955 nM | – | – | 8.83 | 94.7% | 102.2% | – | –
CC(=O)Nc1ncc(CN2CCCC(c3ccnc(C)c3)C2)s1 (stereo not drawn) [compound 6] | 101% | 27.5 nM | 98.7% | 27.5 nM | – | – | – | – | –
CC(=O)Nc1ncc(CN2CCCC(c3cc(C)nc(C)c3)C2)s1 (stereo not drawn) [compound 7] | 99.3% | 17.8 nM | 98.9% | 8.91 nM | – | – | – | – | –
CC(=O)Nc1ncc(CN2CCC[C@H](Nc3cc(C)nc(C)c3)C2)s1 [compound 9] | 103% | 3.72 nM | 102% | 47.9 nM | – | – | – | – | –
Cc1cc(N[C@@H]2CCCN(C(C)c3ccc4nccnc4c3)C2)cc(C)n1 (stereo partly drawn) [compound 11] | 101% | 25.7 nM | 65.2% | 4270 nM | – | – | – | – | –
CC(=O)Nc1ncc(CN2CCCC(Oc3cc(C)cc(C)c3)C2)s1 (stereo not drawn) [compound 13, reference compound] | 98.7% | 93.3 nM | 92.1% | 316 nM | – | – | – | – | –
CC(=O)Nc1ncc(CN2CCCC(Oc3cc(C)nc(C)c3)C2)s1 (stereo not drawn) [compound 14] | 101% | 9.12 nM | 118% | 112 nM | – | – | – | 100% | 8.13 nM
CC(=O)Nc1ncc(CN2CCC[C@@H](Oc3cc(C)nc(C)c3)C2)s1 [compound 15] | 102% | 8.51 nM | 98.4% | 1230 nM | – | – | – | – | –
CC(=O)Nc1ncc(CN2CCC[C@H](Oc3cc(C)nc(C)c3)C2)s1 [compound 16] | 101% | 70.8 nM | 115% | 63.1 nM | – | – | – | – | –
Cc1cc(O[C@@H]2CCCN(Cc3ccc4nccnc4c3)C2)cc(C)n1 [compound 18] | 97.9% | 417 nM | 12.4% | > 10000 nM | – | – | – | – | –
CC(=O)Nc1ncc(CN2CCCC(COc3cc(C)nc(C)c3)C2)s1 (stereo not drawn) [compound 20] | 101% | 6.76 nM | 111% | 6.31 nM | – | – | – | – | –
CC(=O)Nc1ncc(CN2CCCC(Cc3cc(C)nc(C)n3)C2)s1 (stereo not drawn) [compound 24] | 101% | 5.5 nM | 111% | 32.4 nM | – | – | – | – | –

SMILES | Emax [1, 3] | IC50 [1, 3] | Emax [2] | EC50 [2] | Cellular hOGA; pEC50 [2] | Cellular Emax (%) [2] | Enzymatic Emax (%) [1, 3] | Emax [1, 4] | IC50 [1, 4]
CC(=O)Nc1ncc(CN2CCCC(Cc3cc(C)nc(C)c3)C2)s1 (stereo not drawn) [compound 27] | 99.6% | 2.45 nM | 118% | 5.25 nM | – | – | – | – | –
CC(=O)Nc1ncc(CN2CCC[C@H](Cc3cc(C)nc(C)c3)C2)s1 [compound 28] | 102% | 1.05 nM | 106% | 4.47 nM | – | – | – | – | –
CC(=O)Nc1ncc(CN2CCC[C@@H](Cc3cc(C)nc(C)c3)C2)s1 [compound 29] | 102% | 8.71 nM | 108% | 56.2 nM | – | – | – | – | –
CC(=O)Nc1ncc(CN2CCC(Cc3cc(C)nc(C)c3)C2)s1 (stereo not drawn) [compound 30] | 124% | 4.68 nM | 99.2% | 13.2 nM | – | – | – | – | –
CC(=O)Nc1ncc(CN2CCCC(Nc3cc(C)nc(C)c3)C2)s1 (stereo not drawn) [compound 31] | 102% | 3.24 nM | 90.2% | 20 nM | – | – | – | – | –
CC(=O)Nc1ncc(S(=O)(=O)N2CCC[C@H](Cc3cc(C)nc(C)c3)C2)s1 [compound 33] | 99.9% | 72.4 nM | 33.8% | > 1000 nM | – | – | – | – | –
CC(=O)Nc1ncc(CN2CC[C@@H](Cc3ncc(C)cc3C(F)(F)F)C2)s1 [compound 35] | 101% | 12.6 nM | 91.9% | 77.6 nM | – | – | – | – | –
CC(=O)Nc1ncc(CN2CC[C@H](Cc3cnc(C)c(C)c3)C2)s1 [compound 37] | 99.1% | 3.09 nM | 87.8% | 18.2 nM | – | – | – | – | –
CCOc1cc(C[C@H]2CCN(Cc3cnc(NC(C)=O)s3)C2)cc(C)n1 [compound 41] | 99.6% | 8.51 nM | 90.7% | 20.9 nM | – | – | – | – | –
CC(=O)Nc1ncc(CN2CC[C@H](Cc3ncccc3C#N)C2)s1 [compound 45] | 101% | 26.9 nM | 80.1% | 219 nM | – | – | – | – | –
CC(=O)Nc1ncc(CN2CC[C@H](Cc3ccc(C#N)cn3)C2)s1 [compound 46] | 101% | 21.9 nM | 85.9% | 47.9 nM | – | – | – | – | –
CC(=O)Nc1ncc(CN2CC[C@H](Cc3nnc(C)cc3C)C2)s1 [compound 47] | 96.9% | 40.7 nM | 61.6% | 288 nM | – | – | – | – | –
COc1cnc(C[C@H]2CCN(Cc3cnc(NC(C)=O)s3)C2)c(F)c1 [compound 48] | 100% | 12 nM | 83% | 66.1 nM | – | – | – | – | –
CC(=O)Nc1ncc(CN2CC[C@H](Cc3ccc(OC(F)(F)F)cn3)C2)s1 [compound 49] | 97.9% | 105 nM | 89.6% | 85.1 nM | – | – | – | – | –
CC(=O)Nc1ncc(CN2CC[C@H](Cc3ccc(C(F)F)cn3)C2)s1 [compound 50] | 99.4% | 77.6 nM | 87.4% | 55 nM | – | – | – | – | –
